In patent US20220288052A1, “COMPOUND FOR COMBINATION TREATMENT” (priority 2019, published 2022):
Like-named read-outs stand apart in the source and are kept apart here.

Tests used:
[1] = molecular target: DAT (Homo sapiens, UniProt Q01959); assay: MDS LeadProfilingScreen, DAT; type: binding
[2] = molecular target: CYP 2D6 (Homo sapiens, UniProt P10635); assay: CYP450 inhibition, cocktail of selective substrates, 2D6; type: in vitro ADME; details: CYP 2D6, Bufuralol to 1′-hydroxybufuralol; read-out: IC50 of compound (I)
Chain of CYP 2D6 (P10635 whole entry): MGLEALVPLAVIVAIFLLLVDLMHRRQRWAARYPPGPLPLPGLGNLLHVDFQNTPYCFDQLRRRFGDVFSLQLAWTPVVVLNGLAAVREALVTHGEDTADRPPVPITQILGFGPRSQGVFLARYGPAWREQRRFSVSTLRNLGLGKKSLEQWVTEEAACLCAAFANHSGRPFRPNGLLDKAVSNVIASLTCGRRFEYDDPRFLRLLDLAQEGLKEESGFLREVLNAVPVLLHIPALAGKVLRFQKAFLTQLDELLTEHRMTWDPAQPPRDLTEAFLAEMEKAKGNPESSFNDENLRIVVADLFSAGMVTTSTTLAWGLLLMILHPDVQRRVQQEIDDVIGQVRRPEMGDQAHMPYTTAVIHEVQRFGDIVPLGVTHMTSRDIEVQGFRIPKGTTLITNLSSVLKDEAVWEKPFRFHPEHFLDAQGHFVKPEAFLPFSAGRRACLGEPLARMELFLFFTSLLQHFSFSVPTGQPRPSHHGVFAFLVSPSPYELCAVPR
Description: Compound (I) was tested for CYP450 inhibition using a cocktail of selective substrates. […] This might be addressed later in a clinical study.

[3] = Linearity after single s.c. dose in rat; type: in vivo; details: for AUC(0-inf) / Cmax / bioavailability / half-life: Wistar, rat; for AUC(0-inf) / Cmax / bioavailability / half-life / Tmax: plasma, sc; for half-life: read-out: T½ (converted); for Tmax: male Wistar rat, 5% Tween 80
[4] = test system: plasma protein; assay: Plasma protein binding by equilibrium dialysis, rat; type: in vitro ADME
Description: The plasma protein binding was tested in rat, mouse, dog and human plasma by equilibrium dialysis. The plasma protein binding of this compound is remarkably low (Table 24).

[5] = 14-day repeat-dose study in Wistar rats; type: in vivo, rat
Description: In a 14-day repeat-dose study 4 groups of 4 male and 4 female Wistar rats were treated daily with either compound (I) at doses of 5, 10 and 15 mg/kg s.c. (Groups 2, 3 and 4), or vehicle, 5% glucose s.c. (Group 1). A satellite group 25 mg/kg s.c. (group5) was conducted accordingly to increase the exposure and efficacy.

[6] = molecular target: SERT (Homo sapiens, UniProt P31645); assay: MDS LeadProfilingScreen, SERT; type: binding
Chain of SERT (P31645 whole entry): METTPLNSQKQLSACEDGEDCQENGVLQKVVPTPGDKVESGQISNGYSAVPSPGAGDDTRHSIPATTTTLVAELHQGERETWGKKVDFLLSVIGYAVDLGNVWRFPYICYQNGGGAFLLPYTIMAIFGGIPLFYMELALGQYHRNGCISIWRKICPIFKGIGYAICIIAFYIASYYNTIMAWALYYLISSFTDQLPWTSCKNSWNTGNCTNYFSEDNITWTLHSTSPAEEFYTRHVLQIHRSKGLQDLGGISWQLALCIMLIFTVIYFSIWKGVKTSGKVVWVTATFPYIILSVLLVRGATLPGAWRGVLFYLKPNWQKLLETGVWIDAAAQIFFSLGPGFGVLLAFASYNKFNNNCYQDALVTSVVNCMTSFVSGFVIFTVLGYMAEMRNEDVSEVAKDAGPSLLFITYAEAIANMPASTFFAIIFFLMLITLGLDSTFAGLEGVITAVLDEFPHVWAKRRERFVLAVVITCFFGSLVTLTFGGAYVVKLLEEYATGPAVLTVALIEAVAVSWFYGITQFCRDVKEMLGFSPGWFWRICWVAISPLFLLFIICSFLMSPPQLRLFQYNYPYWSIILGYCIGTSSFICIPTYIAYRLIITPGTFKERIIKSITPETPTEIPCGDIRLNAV

[7] = test system: brain levels of noradrenalin (NA); assay: In vivo microdialysis, NA; parameters: species or system rat
Description: The purpose of the present study was to examine, by in vivo microdialysis technique, the effects after administration of compound (I) on brain levels of serotonin, noradrenalin and dopamine within the ventral hippocampus (Hipp), prefrontal cortex (PFC), striatum (STR) and nucleus accumbens (N.Acc) of anaesthetized rats and mice. Compound (I) represents dual acting serotonin/dopamine reuptake inhibitors and was tested in comparison to citalopram a selective serotonin uptake inhibitor. Compound (I) was tested following subcutaneous injections at dose levels between 0.25-30 mg/kg. […] Pre-treatment with the 5-HT1A autoreceptor antagonist WAY-100635 induced a further minor increase of the compound (I) (0.25 mg/kg) induced increase in the PFC level of 5-HT.

[8] = Exposure and tissue distribution after 14 days repeat dosing, mouse; type: in vivo; details: for concentration at 2 h / Kp at 2 h: mouse, po, 2 h post last dose
Description: Single time point data is available from two 14 days repeat dose studies in mice and rats dosed to both sexes. The three low doses were performed together as one study and the top dose was performed at another occasion as a satellite study.
Samples were taken 2 h post last dose.
Plasma, brain and liver were taken 2 h post last dose.

[9] = test system: mice; assay: Mouse zero maze (mZM); type: in vivo; details: mZero maze, p.o.
Description: Mice were treated (peroral administration) for 7 days with either, vehicle, duloxetine (10 mg/kg), and compound I (0.1 mg/kg, 1 mg/kg, and 3 mg/kg) (n=8 in each group).
Compound (I) was tested in three widely used behavioural screens for predicting anxiolytic effects in the clinic: the mouse marble burying test (mMB), mouse zero maze (mZM) and mouse stress-induced hyperthermia test (mSIH).

[10] = 15 mg/kg s.c. 14 days (Group 4)
[11] = 25 mg/kg s.c. 14 days (Group 5)

Chain of DAT (Q01959 whole entry): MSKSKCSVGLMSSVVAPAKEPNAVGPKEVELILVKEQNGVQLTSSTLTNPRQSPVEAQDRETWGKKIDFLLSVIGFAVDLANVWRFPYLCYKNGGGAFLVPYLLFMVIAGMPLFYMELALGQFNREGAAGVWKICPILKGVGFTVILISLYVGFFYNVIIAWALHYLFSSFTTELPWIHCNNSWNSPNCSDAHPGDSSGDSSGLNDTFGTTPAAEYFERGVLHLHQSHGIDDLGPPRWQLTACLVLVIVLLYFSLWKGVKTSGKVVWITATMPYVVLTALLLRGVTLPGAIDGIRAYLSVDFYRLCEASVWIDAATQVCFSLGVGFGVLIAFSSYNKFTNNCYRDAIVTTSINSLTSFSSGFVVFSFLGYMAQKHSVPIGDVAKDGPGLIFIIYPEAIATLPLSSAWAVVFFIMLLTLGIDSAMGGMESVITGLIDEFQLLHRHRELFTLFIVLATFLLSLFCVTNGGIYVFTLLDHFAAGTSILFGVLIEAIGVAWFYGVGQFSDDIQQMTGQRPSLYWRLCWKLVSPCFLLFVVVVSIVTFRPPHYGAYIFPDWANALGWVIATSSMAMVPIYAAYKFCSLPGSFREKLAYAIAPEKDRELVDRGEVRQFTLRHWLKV

## O=c1ccc2ccc(O[C@@H]3C[C@H]4CC[C@@H](C3)N4)cc2o1 [Compound (I), exo-7-(8-aza-bicyclo[3.2.1]oct-3-yloxy)-chromen-2-one]
[1]
  Ki: 155 nM
[1]; DAT, Human, 10 μM
  inhibition at 10 µM: 97%
[2]
  IC50: 44000 nM
[3]; 1 mg/kg s.c.
  AUC(0-inf): 125 ng·h/mL
  Cmax: 69 ng/mL
  half-life: 40.2 min
  Tmax: 60 min
[3]; 1 mg/kg s.c., compared to 10 mg/kg i.v. in same vehicle
  bioavailability: 117%
[3]; 5 mg/kg s.c.
  Cmax: 320 ng/mL
  half-life: 46.2 min
  Tmax: 60 min
[3]; 5 mg/kg s.c., compared to 10 mg/kg i.v. in same vehicle
  bioavailability: 113%
[3]; 10 mg/kg s.c.
  Cmax: 729 ng/mL
  half-life: 40.8 min
  Tmax: 30 min
[3]; 10 mg/kg s.c., compared to 10 mg/kg i.v. in same vehicle
  bioavailability: 108%
[3]; s.c. dosing in rats
  bioavailability: ~100%
[3]; male, 5 mg/kg s.c.
  AUC(0-inf): 604 ng·h/mL
[3]; male, 10 mg/kg s.c.
  AUC(0-inf): 1150 ng·h/mL
[3]; rats s.c., relatively low doses, single dose
  Linearity of kinetics (AUC versus dose): very nice linear kinetics
[4]; 81 ng/ml
  fraction unbound at 81 ng/ml: 0.566
[4]; 271 ng/ml
  fraction unbound at 271 ng/ml: 0.65
[4]; 813 ng/ml
  fraction unbound at 813 ng/ml: 0.582
[4]; 2710 ng/ml
  fraction unbound at 2710 ng/ml: 0.635
[5]; [10]
  Activity: increased activity in both males and females
  Body weight gain: No changes in body weight gain were observed in the female rats, but a tendency to increased bodyweight in the group 4 males
  Relative liver weights: reduced in group 4 females and increased in group 4 males
[5]; [11]
  Activity: increased activity in both male and female
  Body weight: minimal decreased body weight
  Liver weight: No changes in liver weight
[5]; s.c. 14 days
  Macroscopic findings at termination: no treatment-related macroscopic findings
[6]
  Ki: 0.37 nM
[6]; SERT, Human, 10 μM
  inhibition at 10 µM: 103%
[7]; Hippocampus, 3 mg/kg s.c., 3 mg/kg
  NA (AUC0-160 min): 138±13%
[7]; Pre-frontal cortex, 10 mg/kg s.c., 10 mg/kg
  NA (AUC0-160 min): 135±4%
[8]; NMRI, brain, Female mice, 15 mg/kg p.o. 14 days, read-out: Brain concentration
  concentration at 2 h: 2640 ng/g
[8]; NMRI, brain, Female mice, 15 mg/kg p.o. 14 days, read-out: Brain/plasma ratio
  Kp at 2 h: 7
[8]; NMRI, brain, Female mice, 30 mg/kg p.o. 14 days, read-out: Brain concentration
  concentration at 2 h: 7070 ng/g
[8]; NMRI, brain, Female mice, 30 mg/kg p.o. 14 days, read-out: Brain/plasma ratio
  Kp at 2 h: 6
[8]; NMRI, brain, Female mice, 60 mg/kg p.o. 14 days, read-out: Brain concentration
  concentration at 2 h: 11500 ng/g
[8]; NMRI, brain, Female mice, 60 mg/kg p.o. 14 days, read-out: Brain/plasma ratio
  Kp at 2 h: 6
[8]; NMRI, brain, Female mice, 90 mg/kg p.o. 14 days, read-out: Brain concentration
  concentration at 2 h: 17100 ng/g
[8]; NMRI, brain, Male mice, 15 mg/kg p.o. 14 days, read-out: Brain concentration
  concentration at 2 h: 1970 ng/g
[8]; NMRI, brain, Male mice, 15 mg/kg p.o. 14 days, read-out: Brain/plasma ratio
  Kp at 2 h: 7
[8]; NMRI, brain, Male mice, 30 mg/kg p.o. 14 days, read-out: Brain concentration
  concentration at 2 h: 4720 ng/g
[8]; NMRI, brain, Male mice, 30 mg/kg p.o. 14 days, read-out: Brain/plasma ratio
  Kp at 2 h: 6
[8]; NMRI, brain, Male mice, 60 mg/kg p.o. 14 days, read-out: Brain concentration
  concentration at 2 h: 8080 ng/g
[8]; NMRI, brain, Male mice, 60 mg/kg p.o. 14 days, read-out: Brain/plasma ratio
  Kp at 2 h: 6
[8]; NMRI, brain, Male mice, 90 mg/kg p.o. 14 days, read-out: Brain concentration
  concentration at 2 h: 21100 ng/g
[8]; NMRI, in vivo, Female mice, 15 mg/kg p.o. 14 days, read-out: Liver/plasma ratio
  Kp at 2 h: 18
[8]; NMRI, in vivo, Female mice, 30 mg/kg p.o. 14 days, read-out: Liver/plasma ratio
  Kp at 2 h: 18
[8]; NMRI, in vivo, Female mice, 60 mg/kg p.o. 14 days, read-out: Liver/plasma ratio
  Kp at 2 h: 21
[8]; NMRI, in vivo, Male mice, 15 mg/kg p.o. 14 days, read-out: Liver/plasma ratio
  Kp at 2 h: 28
[8]; NMRI, in vivo, Male mice, 30 mg/kg p.o. 14 days, read-out: Liver/plasma ratio
  Kp at 2 h: 17
[8]; NMRI, in vivo, Male mice, 60 mg/kg p.o. 14 days, read-out: Liver/plasma ratio
  Kp at 2 h: 12
[8]; NMRI, liver, Female mice, 15 mg/kg p.o. 14 days, read-out: Liver concentration
  concentration at 2 h: 7160 ng/g
[8]; NMRI, liver, Female mice, 30 mg/kg p.o. 14 days, read-out: Liver concentration
  concentration at 2 h: 22500 ng/g
[8]; NMRI, liver, Female mice, 60 mg/kg p.o. 14 days, read-out: Liver concentration
  concentration at 2 h: 42000 ng/g
[8]; NMRI, liver, Male mice, 15 mg/kg p.o. 14 days, read-out: Liver concentration
  concentration at 2 h: 8220 ng/g
[8]; NMRI, liver, Male mice, 30 mg/kg p.o. 14 days, read-out: Liver concentration
  concentration at 2 h: 12700 ng/g
[8]; NMRI, liver, Male mice, 60 mg/kg p.o. 14 days, read-out: Liver concentration
  concentration at 2 h: 17700 ng/g
[8]; NMRI, plasma, Female mice, 15 mg/kg p.o. 14 days, read-out: Plasma concentration
  concentration at 2 h: 390 ng/mL
[8]; NMRI, plasma, Female mice, 30 mg/kg p.o. 14 days, read-out: Plasma concentration
  concentration at 2 h: 1280 ng/mL
[8]; NMRI, plasma, Female mice, 60 mg/kg p.o. 14 days, read-out: Plasma concentration
  concentration at 2 h: 2000 ng/mL
[8]; NMRI, plasma, Male mice, 15 mg/kg p.o. 14 days, read-out: Plasma concentration
  concentration at 2 h: 289 ng/mL
[8]; NMRI, plasma, Male mice, 30 mg/kg p.o. 14 days, read-out: Plasma concentration
  concentration at 2 h: 762 ng/mL
[8]; NMRI, plasma, Male mice, 60 mg/kg p.o. 14 days, read-out: Plasma concentration
  concentration at 2 h: 1420 ng/mL
[8]; mice, 15-90 mg/kg p.o. 14 days, 5% glucose
  Linearity of kinetics after repeat dosing: tendency to sub-linear kinetics
[8]; brain, Female mice, 90 mg/kg p.o. 14 days, read-out: Brain/plasma ratio
  Kp at 2 h: 4
[8]; brain, Male mice, 90 mg/kg p.o. 14 days, read-out: Brain/plasma ratio
  Kp at 2 h: 4
[8]; in vivo, Female mice, 90 mg/kg p.o. 14 days, read-out: Liver/plasma ratio
  Kp at 2 h: 16
[8]; in vivo, Male mice, 90 mg/kg p.o. 14 days, read-out: Liver/plasma ratio
  Kp at 2 h: 16
[8]; liver, Female mice, 90 mg/kg p.o. 14 days, read-out: Liver concentration
  concentration at 2 h: 63300 ng/g
[8]; liver, Male mice, 90 mg/kg p.o. 14 days, read-out: Liver concentration
  concentration at 2 h: 75000 ng/g
[8]; plasma, Female mice, 90 mg/kg p.o. 14 days, read-out: Plasma concentration
  concentration at 2 h: 3980 ng/mL
[8]; plasma, Male mice, 90 mg/kg p.o. 14 days, read-out: Plasma concentration
  concentration at 2 h: 4730 ng/mL
[9]; acute, −60 min
  MED: >10 mg/kg
[9]; 7 days OD
  MED: <0.3 mg/kg
